Like-named read-outs stand apart in the source and are kept apart here. Residues, ends and D or L forms follow the SMILES beside them. *: point of attachment. Cbz = O=C(OCc1ccccc1)*; CH2F = FC*
Legend:
[1] = target: p63^Krsl; experiment: In-gel kinase assay (MBP substrate) of p63^Krsl activity in treated NIH3T3 cultures; assay type: cell-based, mouse; details: quiescent NIH3T3 cultures stimulated with reagent
Experimental: (§1) Mouse NIH3T3 fibroblast cultures were maintained in Dulbecco's modified Eagle's medium (DMEM)(BRL/GIBCO, Grand Island, N.Y.) supplemented with 5% calf serum, 50 units/ml penicillin, and 5 mcg/ml streptomycin, and cultivated at 37° C.
Mouse 10T1/2 fibroblast cultures were maintained in Basal medium Eagle (BRL/GIBCO, Grand Island, N.Y.) supplemented with 10% heat-inactivated fetal bovine serum, 50 U/ml penicillin, and 5 μg/ml streptomycin, and cultivated at 37° C. Cells synchronized in quiescent state were growth-arrested by serum starvation for 48 hr. […]
Cells were lysed with 30 strokes of a tight-fitting Dounce homogenizer in lysis A buffer (10 mM KH2PO4, 1 mM EDTA, 5 mM EGTA, 10 mM MgCl2, 50 mM […], 1 mM Na3VO4, 2 mM dithiothreitol) (Wang et al., 1992). […] Protein concentration in S20 was measured by using the BCA assay (Pierce, Rockford, Ill.). […]
MBP (BRL/GIBCO, Grand Island, N.Y.) was used as a substrate in the assay and the in-gel kinase assay was performed as previously described (Wang et al., 1992). […] Protein kinases which phosphorylated MBP in the gel were detected by autoradiography of the [γ^32P]-labeled MBP.

[2] = target: p33^QIK; experiment: In-gel kinase assay (MBP substrate) of p33^QIK activity in treated NIH3T3 cultures; assay type: cell-based, mouse; details: for induction of p33^QIK activity: cultures preincubated with caspase inhibitor prior to serum starvation and osmotic stress
Experimental: as §1
(§2) Mouse 10T1/2 fibroblast cultures were maintained in Basal medium Eagle (BRL/GIBCO, Grand Island, N.Y.) supplemented with 10% heat-inactivated fetal bovine serum, 50 U/ml penicillin, and 5 μg/ml streptomycin, and cultivated at 37° C. Cells synchronized in quiescent state were growth-arrested by serum starvation for 48 hr. Actinomycin D (ActD), cycloheximide (CHXM), 12-0-tetradecanoylphorbol 13-acetate (TPA), staurosporine (STSP) (Sigma Chemical, St. Louis, Mo.), sodium fluoride (NaF), sodium orthovanadate (Na3VO4) (Fisher Scientific, Pittsburgh, Pa.), and FR901228 (FR)(NCI, Frederick, Md.) were diluted in cultured medium before treatment of cultured cells. A broad range caspase inhibitor Z-Asp-[(2,6-dichlorobenzoyl)oxy]methane (Z-D-CH2-DCB) (Dolle et al., 1994; Mashima et al., 1995)(CALBIOCHEM, La Jolla, Calif.) was dissolved in dimethyl sulfoxide and diluted in cultured medium for treatment. Recombinant human Caspase-3 was purchased from Alexis Biochemicals (San Diego, Calif.). Protein phosphatase 1 (PP1) and Lambda protein phosphatase (λPPase) were purchased from NE BioLabs (Beverly, Mass.). Production of rabbit polyclonal antibody Ab-KQ to p63^Krsl and p33^QIK was made using peptide sequences of Krsl as antigens (Alpha Diagnostic International, San Antonio, Tex.). UV irradiation was carried out using a UV Crosslinker (Stratagene, La Jolla, Calif.).
(§3) Cells were lysed with 30 strokes of a tight-fitting Dounce homogenizer in lysis A buffer (10 mM KH2PO4, 1 mM EDTA, 5 mM EGTA, 10 mM MgCl2, 50 mM […], 1 mM Na3VO4, 2 mM dithiothreitol) (Wang et al., 1992). Cytoplasmic proteins (S20) were isolated from the supernatants after centrifugation of crude lysates at 20,000 ×g for 20 min. Protein concentration in S20 was measured by using the BCA assay (Pierce, Rockford, Ill.). Immunoprecipitation of p33^QIK was carried out by incubation of S20 with the specific antibody Ab-KQ at 0° C. for 1 hr. Immune complexes were adsorbed to Pansorbin (Staphylococcus aureus) (CALBIOCHEM, La Jolla, Calif.) at 0° C. for 30 min and washed with STE buffer (50 mM Tris-HCl, pH 7.0, 150 mM NaCl, 1 mM Na2 EDTA) supplemented with 0.1 mM DTT and 0.1% NP-40 and ST buffer supplemented with 1 mM DTT.
(§4) MBP (BRL/GIBCO, Grand Island, N.Y.) was used as a substrate in the assay and the in-gel kinase assay was performed as previously described (Wang et al., 1992). Briefly, 10% SDS-polyacrylamide gel (SDS-PAG) was copolymerized with 0.4 mg/ml MBP. Cellular proteins were resolved in the MBP-immobilized SDS-PAG, followed by rinsing the gel with 20% isopropanol in buffer B (100 mM Tris, pH 8, 5 mM β-mercaptoethanol). The gel was denatured in buffer B supplemented with 6 M guanidine-HCl and renatured with buffer B supplemented with 0.04% Tween 40 (Kameshita and Fujisawa, 1989). Kinase reaction was carried out by incubating the gel with kinase buffer (20 Mm Tris, pH 7.2, 10 mM MgCl2, 15 mM β-glycerolphosphate) supplemented with 50 μM γATP and 50 μCi of [γ-^32P]ATP at 22° C. for 30 min. The gel was washed with 1% sodium pyrophosphate in 5% trichloroacetic acid. Protein kinases which phosphorylated MBP in the gel were detected by autoradiography of the [γ^32P]-labeled MBP.

[3] = target: T1, Caspase-3 (Homo sapiens, UniProt P42574); experiment: Inhibition of caspase-3 modification of immune complexes; assay type: biochemical; details: 5 μM inhibitor, 0.2 μg Caspase-3, 37° C., 30 min
T1 construct: purchased Alexis Biochemicals (San Diego, Calif.)
T1 sequence (P42574 29-175 limits assumed): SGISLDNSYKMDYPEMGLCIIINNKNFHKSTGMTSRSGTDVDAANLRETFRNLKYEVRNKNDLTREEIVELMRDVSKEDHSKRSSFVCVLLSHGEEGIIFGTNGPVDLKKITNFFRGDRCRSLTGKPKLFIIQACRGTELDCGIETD
Experimental: Both p63^Krsl and p33^QIK in 10 μg of cytosolic lysates (S20) were immunoprecipitated by Ab-KQ (lanes 2 to 4 and 6 to 8), followed by reatment with 0.2 μg Caspase-3 (C)(lanes 3, 4, 7 and 8) in the presence of 5 μM caspase inhibitor Z-D-CH2-DCB (C+I)(lanes 4 and 8) at 37° C. for 30 min. The kinase activities of p63^Krsl, p35, and p33^QIK in 5 μg of S20 (lanes 1 and 5) and in the immune complexes were determined by the in-gel kinase assay using MBP as a substrate. Bars indicate p63^Krsl p35, and p33^QIK.
Mouse 10T1/2 fibroblast cultures were maintained in Basal medium Eagle (BRL/GIBCO, Grand Island, N.Y.) supplemented with 10% heat-inactivated fetal bovine serum, 50 U/ml penicillin, and 5 μg/ml streptomycin, and cultivated at 37° C. Cells synchronized in quiescent state were growth-arrested by serum starvation for 48 hr. Actinomycin D (ActD), cycloheximide (CHXM), 12-0-tetradecanoylphorbol 13-acetate (TPA), staurosporine (STSP) (Sigma Chemical, St. Louis, Mo.), sodium fluoride (NaF), sodium orthovanadate (Na3VO4) (Fisher Scientific, Pittsburgh, Pa.), and FR901228 (FR)(NCI, Frederick, Md.) were diluted in cultured medium before treatment of cultured cells. […]

[4] = target: p44/42^Erk; assay type: cell-based, mouse
Experimental: as §1, §2, §3, §4

[5] = system: NIH3T3 cultures; experiment: Cell death in quiescent NIH3T3 cultures; assay type: cell-based, mouse; details: quiescent cultures treated with ActD or CHXM for 3 hr
[6] = quiescent NIH3T3 cultures (48 hr serum starvation) stimulated with reagent, 1-6 hr

## C=C1[C@@H](O)[C@@H]2O[C@]3(CC[C@H](/C=C/[C@@H](C)[C@@H]4CC(C)=C[C@@]5(O[C@H](C[C@@](C)(O)C(=O)O)CC[C@H]5O)O4)O3)CC[C@H]2O[C@@H]1[C@@H](O)C[C@H](C)[C@H]1O[C@@]2(CCCCO2)CC[C@H]1C [okadaic acid]
[1]
  kinase activity of p63^Krsl: activated p63^Krsl
[2]; [6]
  kinase activity of p33^QIK: did not result in deactivation of p33^QIK

## O=C(O)CC(NC(=O)OCc1ccccc1)C(=O)COC(=O)c1c(Cl)cccc1Cl [Z-D-CH2-DCB, Z-Asp-[(2,6-dichlorobenzoyl)oxy]methane]
[3]
  blockage of caspase-3 induced changes in p63^Krsl, p35 and p33^QIK activity: completely blocked
[2]
  induction of p33^QIK activity: neither blocked induction of p33^QIK activity

## CCCCCCCCCCCCCC(=O)O[C@@H]1[C@@H](C)[C@@]2(O)[C@@H](C=C(CO)C[C@]3(O)C(=O)C(C)=C[C@@H]23)[C@H]2C(C)(C)[C@]12OC(C)=O [phorbol ester, 12-0-tetradecanoylphorbol 13-acetate]
[2]; [6]
  kinase activity of p33^QIK: progressive decrease of p33^QIK activity
[4]; [6]
  kinase activity of p44/42^Erk: transient induction of p44/42^Erk activity

## COC(=O)C[C@H](NC(=O)[C@H](C)NC(=O)[C@@H](NC(=O)OCc1ccccc1)C(C)C)C(=O)CF [Z-VAD-FMK] (Cbz-Val-Ala-Asp(OMe)-CH2F)
[2]
  induction of p33^QIK activity: neither blocked induction of p33^QIK activity

## C[C@@H]1C[C@@H]([C@H](O)CC2CC(=O)NC(=O)C2)C(=O)[C@@H](C)C1 [CHXM, cycloheximide]
[5]
  cell death: extensive cell death occurred
[2]; quiescent NIH3T3, absence of serum, 5 μg/ml ActD or 10 μg/ml CHXM, 1 or 3 hr
  kinase activity of p33^QIK: significant increases of p33^QIK activity
[2]; quiescent NIH3T3, co-treatment with 100 ng/ml TPA, 5 μg/ml ActD or 10 μg/ml CHXM, 1 or 3 hr
  TPA-induced deactivation of p33^QIK: blockage of the TPA-induced deactivation of p33^QIK but also in an increase in the kinase activity of p33^QIK
[2]; quiescent NIH3T3, co-treatment with 10% serum, 5 μg/ml ActD or 10 μg/ml CHXM, 1 or 3 hr
  serum-induced down-regulation of p33^QIK activity: blocked the serum-induced down-regulation of p33^QIK activity
[4]; quiescent NIH3T3 treated with serum or TPA in the presence of ActD or CHXM
  kinase activity of p44/42^Erk: constant activation of p44/42^Erk

— US20030170252A1, “Antibody compositions specific for p33QIK and p63Krs1 polypeptides and uses thereof” (priority 2000, published 2003)
